Source: PubChem BioAssay (NCI)
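Cells were grown in 96-well plates and exposed to each compound for 48 hours at five concentrations; endpoints were interpolated linearly between bracketing concentrations, or set to the highest concentration if not reached. Here, GI50 denotes the concentration required for 50% inhibition of growth. TGI: concentration producing complete growth inhibition.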

Columns and labels:
Assay in all cases: inhibition of tumour cell growth, NCI panel, 48 h
NCI/ADR-RES ovarian = test system: NCI/ADR-RES ovarian
SF-295 CNS = test system: SF-295 CNS
NCI-H522 lung = test system: NCI-H522 lung
SF-268 CNS = test system: SF-268 CNS
SK-OV-3 ovarian = test system: SK-OV-3 ovarian
NCI-H460 lung = test system: NCI-H460 lung
PC-3 prostate = test system: PC-3 prostate
SK-MEL-2 melanoma = test system: SK-MEL-2 melanoma
RXF 393 renal = test system: RXF 393 renal
MALME-3M melanoma = test system: MALME-3M melanoma

SMILES | GI50 (NCI/ADR-RES ovarian) [µM] | TGI (NCI/ADR-RES ovarian) [µM] | GI50 (SF-295 CNS) [µM] | TGI (SF-295 CNS) [µM] | GI50 (NCI-H522 lung) [nM] | TGI (NCI-H522 lung) [µM] | GI50 (SF-268 CNS) [µM] | TGI (SF-268 CNS) [µM] | GI50 (SK-OV-3 ovarian) [µM] | TGI (SK-OV-3 ovarian) [µM] | GI50 (NCI-H460 lung) [µM] | TGI (NCI-H460 lung) [µM] | GI50 (PC-3 prostate) [nM] | TGI (PC-3 prostate) [µM] | GI50 (SK-MEL-2 melanoma) [µM] | TGI (SK-MEL-2 melanoma) [µM] | TGI (RXF 393 renal) [µM] | TGI (MALME-3M melanoma) [µM] | GI50 (MALME-3M melanoma) [µM] | GI50 (RXF 393 renal) [nM]
CCOC(=O)/C(C=Nc1ccc(-c2nc3ccccc3[nH]2)cc1)=C(/C)O | 13 | 32.2 | 16.4 | > 50 | 10700 | 26.4 | 11.7 | 34.5 | 22.2 | > 50 | 12.1 | > 50 | 27200 | > 50 | 9.14 | 22.6 |  |  |  | 
NC(=O)C(=O)N/N=C1\C(=O)N(c2ccc(Cl)cc2Cl)C(=O)C1C(=O)Nc1ccc(Cl)cc1Cl (stereo unspecified) |  |  |  | > 100 |  | > 100 |  | > 100 |  | > 100 |  | > 100 |  |  |  | > 100 | > 100 | > 100 |  | 
Cc1cc(CC(=O)NCCO)n(CCO)c(=O)c1 |  |  |  | > 100 |  | > 100 |  | > 100 |  |  |  | > 100 |  |  |  |  | > 100 | > 100 |  | 
CCOC(=O)c1c(C)nc2c(c1N)CC(=O)N2Cc1ccc(OC)cc1 | 4.96 | > 100 | 2.53 | 7.37 | > 100000 | > 100 | 4.29 | > 100 |  |  |  |  | > 100000 | > 100 | 36.1 | > 100 |  | > 100 | > 100 | 
CCN(CC)c1c(C(=O)/C=C/c2ccc(Cl)cc2)c(-c2ccccc2)nn(C)c1=O |  |  |  | 3.38 |  | 2.98 |  | 3.4 |  | 18.7 |  | 3.67 |  |  |  | 3.62 | 2.8 | 4.35 |  | 
N.N.N.N.N.NC(=O)c1nn[n-]n1.[Cl-].[Co+3] |  |  | > 100 | > 100 |  |  | > 100 | > 100 | > 100 | > 100 | > 100 | > 100 |  |  | > 100 | > 100 | > 100 | > 100 | > 100 | > 100000
NS(=O)(=O)c1ccc(-n2nc(-c3ccc(Cl)cc3)cc2-c2cc(O)ccc2O)cc1 | 20.9 | 47.6 | 17.6 | 33.5 | 2580 | 6.71 | 10.5 | 26.2 |  |  | 7.81 | > 100 | 8370 | 23.8 | 33.5 | > 100 |  |  |  | 
O=[N+]([O-])c1ccc(C[P+](c2ccccc2)(c2ccccc2)c2ccccc2)cc1 |  |  |  | > 100 |  | > 100 |  |  |  | > 100 |  | > 100 |  |  |  | > 100 | > 100 | > 100 |  | 
O=C1N(C2CCCCC2)CC12CCCCC2 |  |  |  |  |  | > 100 |  | > 100 |  | > 100 |  | > 100 |  |  |  | > 100 | > 100 | > 100 |  | 
CCN1C(=O)N(CC)C2C1NN=c1s/c(=C\c3cccc(F)c3)c(=O)n12 (stereo unspecified) | 0.059 | > 100 | 0.224 | > 100 | 228 | 33.2 | 2.61 | > 100 | 2.59 | > 100 | 0.217 | 15.1 | 185 | > 100 | 1.69 | > 100 |  | > 100 | 0.429 | 
CC1=C(c2ccccc2)C(c2ccccc2)=C(c2ccccc2)C2(c3ccccc3)C(=O)C(C)CN12 (stereo unspecified) |  |  |  | 37.7 |  | 72.4 |  | > 100 |  | > 100 |  | > 100 |  |  |  | > 100 | 63.5 | > 100 |  | 
CCOC(=O)C12CCCC1(O)N(NC(=O)OC(C)(C)C)C(C)=C2C(=O)OC (stereo unspecified) |  |  |  | > 100 |  | > 100 |  | > 100 |  | > 100 |  | > 100 |  |  |  | > 100 |  | > 100 |  | 
O=C(O)CCN(CCCCN(CCC(=O)O)CCC(=O)O)CCC(=O)O |  |  |  | > 100 |  | > 100 |  | > 100 |  | > 100 |  | > 100 |  |  |  | > 100 |  | > 100 |  | 
COc1ccc(/C=C/C(=O)c2cc(OC)c(OC)c(OC)c2)cc1OCc1cn(Cc2ccc(F)cc2)nn1 | 2.99 | > 100 |  |  | 1740 | 5.22 | 2.98 | > 100 |  |  | 3.3 | 15.4 | 2660 | > 100 | 10.6 | 41 | 5.51 | > 100 | 72.5 | 1900
COc1ccc(C(=S)N2CCN(c3cccc(C)c3)CC2)cc1OC |  |  | 4.26 | 44.8 |  |  | 6.18 | 86.8 | 7.24 | > 100 | 3.38 | > 100 |  |  | 47.5 | > 100 | > 100 | 84.4 | 3.34 | 6050
C=CCN=c1sc2c(n1NC(=O)c1cc3ccc1CCc1ccc(cc1)CC3)C(=O)c1ccccc1C2=O |  |  | 1.68 | 3.08 | 1490 | 4.19 | 1.68 | 4.48 | 3.7 | 23.4 | 1.94 | 3.97 | 1490 | 8.81 | 1.74 | 4.32 | 2.71 | 1.58 | 0.383 | 1350
N.N.N.N.[Co+3].[N-]=[N+]=[N-].[N-]=[N+]=[N-].[N-]=[N+]=[N-] |  |  | > 100 | > 100 | 39700 | > 100 | 47.4 | > 100 | > 100 | > 100 | > 100 | > 100 |  |  | > 100 | > 100 |  | > 100 | 78.1 | 
CCc1ccccc1NC(=O)C1=C(C)NC(C)=C(C(=O)Nc2ccccc2CC)C1c1ccccc1Cl |  |  |  | > 100 |  | > 100 |  | > 100 |  | > 100 |  | > 100 |  |  |  | > 100 | > 100 | > 100 |  | 
Cc1cccc(/C=C/c2c(C(=O)/C=C/c3ccccc3)c(C)nc3ccccc23)c1 | 1.85 | 4.65 | 1.89 | 3.73 |  |  |  |  |  |  | 1.3 | 2.94 |  |  | 1.77 | 3.63 | 2.86 | 3.2 | 1.79 | 1510
